On the set-up of data set [1]: species or system BALB/c mice. The conditions noted are these: female, BALB/c, mouse, in vivo, iv, 75 mg/kg, 1 h. How it is done: The biodistribution of Gem-DHA was further evaluated in healthy BALB/c mice. Briefly, female BALB/c mice (Charles River, 14-16 weeks, n=3) were injected via the tail vein with Gem-DHA in a Tween 80/ethanol/water solution containing 5% (w/v) mannitol at a dose of 75 mg/kg. After 1 h, mice were euthanized to collect pancreas, lung, spleen, liver, heart, and kidneys. Gem-DHA was extracted from the samples and analyzed using HPLC. As a control, mice (n=3) were also injected with gemcitabine HCl (75 mg/kg) in 5% (w/v) mannitol solution and euthanized 1 h later to collect their pancreas. Gemcitabine was extracted using the following method. Briefly, once the pancreas was collected, it was weighed, placed into 0.25 ml of PBS containing 40 μg of tetrahydrouridine (a deoxycytidine deaminase inhibitor) and homogenized using a bead beater. Deoxyuridine (dU, 20 μl of 20 μg/ml) was then added into the homogenate as an internal standard. Acetonitrile was used to precipitate the proteins twice, and gemcitabine content in the supernatant was analyzed using HPLC. […] Therefore, it appeared that Gem-DHA preferred to distribute in pancreatic tissues.

Data set [2] relates to TC-1 tumors. Kind of data set: Antitumor activity against s.c. TC-1 tumors in C57BL/6 mice. The class given is in vivo. The conditions noted are these: i.p., 50 mg/kg, every 3-4 days, 4 times. How it is done: Therefore, the in vivo antitumor activity of Gem-DHA against TC-1 tumor cells was also evaluated. In the mouse model with TC-1 tumors, 5×10^5 cells were s.c. injected in the right flank of female C57BL/6 mice (Charles River, 6-8 weeks). Eight days later, mice were randomized into 3 groups (n=5-6) and i.p. injected with Gem-DHA (50 mg/kg, −0.087 mmole/kg), gemcitabine HCl (26.1 mg/kg, ˜0.087 mmole/kg), or left untreated as a control. Treatments were repeated every 3-4 days for a total of 4 times. Tumor growth was monitored and tumor volume was calculated as mentioned above. […] Shown in FIG. 14B are the body weights of TC-1 tumor-bearing mice after they were treated with multiple doses of Gem-DHA.

Data set [3] can be described thus: Solubility in ethanol or Tween 80. The class given is physicochemical.
Data set [4] relates to Kras-Ink4a mice that spontaneously develop pancreatic tumors. Kind of data set: Survival of Kras-Ink4a mice, genetically modified model of pancreatic cancer. The class given is in vivo, mouse. The following applies: i.p., 50 mg/kg. How it is done:
Finally, the antitumor activity of Gem-DHA was also evaluated in a genetically modified mouse model of pancreatic cancer. Female Kras-Ink4a mice that spontaneously develop pancreatic tumors were obtained from Dr. Stephen Hursting's lab at the University of Texas at Austin (Lashinger L et al. Cancer Prevention Research. 2013, 6(10), 1046-1055). […] On the 20th week, one group of mice (n=5) started to receive Gem-DHA (50 mg/kg, in Tween 80/ethanol/water solution with 5% (w/v) of mannitol) by i.p. injection. The injection was repeated twice a week, once a week for the last 5 doses, for a total of 29 times. As a control, another group of mice (n=6) were left untreated. […] Shown in FIG. 15 are the survival curves of mice treated with Gem-DHA or left untreated. […] The median survival time of mice that were treated with Gem-DHA was 280 days, in comparison to 172 days for mice that were left untreated (p=0.01, Log-rank (Mantel-Cox) test).

The nature of data set [5]: Plasma pharmacokinetics after i.v. injection. It is filed as in vivo, C57BL/6 mice. The conditions noted are these: 75 mg/kg. The procedure:
Healthy female C57BL/6 mice (6-8 weeks) were injected intravenously (i.v.) with Gem-DHA solution at a dose of 75 mg/kg via the tail vein. At pre-determined time intervals (5, 15, 30, 60, 120, and 180 min), 3 mice were euthanized at each time point to collect plasma samples. Gem-DHA was extracted twice using ethyl acetate and analyzed using HPLC. Data were analyzed using the Pharsight WinNonlin software (Sunnyvale, Calif.).

A short description of data set [6]: Biodistribution in TC-1 tumor-bearing mice. It is filed as in vivo, C57BL/6 mice. The conditions noted are these: 90 min after i.v. 75 mg/kg. The procedure: A biodistribution study was carried out in TC-1 tumor-bearing C57BL/6 mice. When tumor diameters reached 7-8 mm (i.e., about 4 weeks after tumor cell injection), mice were injected via the tail vein with a Gem-DHA solution (75 mg/kg). Ninety minutes later, mice were euthanized to collect tumors and major organs (e.g., liver, kidneys, spleen, lung, heart, and pancreas). Tissues were homogenized, and Gem-DHA was extracted using ethyl acetate as mentioned above and analyzed using HPLC.

Data set [7] concerns Panc-1-Luc human pancreatic cells. Kind of data set: Anti-proliferative activity, MTT assay, Panc-1-Luc cells. The class given is cell-based. The conditions noted are these: 72 h. The procedure: The anti-proliferative activity of Gem-DHA was evaluated in Panc-02, TC-1, Panc-1-Luc, and BxPC-3 cell lines. For Panc-02 and TC-1 cells, cells (1,500/well for Panc-02 and 3,000/well for TC-1) were seeded in 96-well plates and incubated at 37° C. and 5% CO2 overnight. The cells were then treated with various concentrations of Gem-DHA or other compounds for 24 h. For BxPC-3 and Panc-1-Luc cells, 3,000 and 1,000 cells/well were used, respectively, and cells were co-incubated with the Gem-DHA for 72 h. Cell viability was determined using an MTT assay as previously described (Naguib YW et al. Mol Pharm. 2014, 11(4), 1239-1249). Gemcitabine HCl was dissolved in cell culture medium, whereas Gem-DHA and DHA were dissolved in dimethylsulfoxide (DMSO). The values of IC50 were calculated using GraphPad Prism (GraphPad software, Inc., La Jolla, CA).
(In general: Formazan colour is commonly taken as a measure of viable cells.)

In data set [8] the test system is Panc-02 cells. Kind of data set: Apoptosis analysis, Annexin V staining and flow cytometry. It is filed as cell-based, mouse. The conditions noted are these: 48 h. The procedure: Apoptosis analysis was carried out as previously reported (Zhu S et al. Biomaterials. 2013, 34(9), 2327-2339). Briefly, 100,000 Panc-02 cells were incubated in 24-well plates for 24 h at 37° C. and 5% CO2 and then co-incubated with various concentrations of Gem-DHA for 48 h. The cells were then harvested and stained with 0.1 ml of Guava Nexin reagent (Millipore Corporation, Billerica, Mass.) for 20 min at room temperature, protected from light. The stained cells were analyzed using a Millipore Guava easyCyte 8HT Flow Cytometry System. Control cells were left untreated.
On the technique in general: Flow cytometry measures light scatter and fluorescence of single cells or particles in a stream.

As for `CC/C=C\C/C=C\C/C=C\C/C=C\C/C=C\C/C=C\CCC(=O)Nc1ccn(C2OC(CO)C(O)C2(F)F)c(=O)n1` (stereo not drawn) [Gem-DHA, 4-(N)-Docosahexaenoyl Difluorodeoxycytidine], the “Percent of injected compound recovered in each gram of pancreas” value in data set [1] is given as 0.37±0.18%. In addition, the “Control of growth of s.c. TC-1 tumors” value in data set [2] is reported as “more effective than a molar equivalent dose of gemcitabine HCl”. For the same compound, the “Solubility in ethanol or Tween 80” value in data set [3] was “freely soluble”. Moreover, the Median survival time in data set [4] (29 injections from week 20, untreated 172 days, p=0.01) is 280 days. In addition, the “Survival of the mice” value in data set [4] (versus untreated) is reported as “significantly prolonged the survival”. For the same compound, the “Elimination from plasma (model)” value in data set [5] was “follows a bi-exponential model”. Besides, the Distribution among organs entry in data set [6] was “high percent of the injected Gem-DHA was in mouse pancreas”. The “Inhibition of tumor cell growth (comparison)” value in data set [7] was “more effective than gemcitabine alone or the physical mixture of gemcitabine and DHA”. Also, the “Pro-apoptotic activity, Annexin V staining” value in data set [8] is reported as “concentration-dependent apoptosis”.

Values taken from patent US11883423B2, “Nucleobase analogue derivatives and their applications” (BOARD OF REGENTS, THE UNIVERSITY OF TEXAS SYSTEM, priority 2014, dated 2024).
